Results on three compounds are retold here after US7915012B2, “Methods for screening for inhibitors of TRPV2 activation” (Korea University Industry and Academic Collaboration …, priority 2008, dated 2011).

One assay deals with T1, rTRPV2 (Rattus norvegicus, UniProt Q9WUD2, A713V/L151P/T158I).
T1 construct: expressed in transfected cells; host or cells: HEK293T (ATCC CRL-11268)
T1 sequence (Q9WUD2 1-761 L151P/T158I/A713V): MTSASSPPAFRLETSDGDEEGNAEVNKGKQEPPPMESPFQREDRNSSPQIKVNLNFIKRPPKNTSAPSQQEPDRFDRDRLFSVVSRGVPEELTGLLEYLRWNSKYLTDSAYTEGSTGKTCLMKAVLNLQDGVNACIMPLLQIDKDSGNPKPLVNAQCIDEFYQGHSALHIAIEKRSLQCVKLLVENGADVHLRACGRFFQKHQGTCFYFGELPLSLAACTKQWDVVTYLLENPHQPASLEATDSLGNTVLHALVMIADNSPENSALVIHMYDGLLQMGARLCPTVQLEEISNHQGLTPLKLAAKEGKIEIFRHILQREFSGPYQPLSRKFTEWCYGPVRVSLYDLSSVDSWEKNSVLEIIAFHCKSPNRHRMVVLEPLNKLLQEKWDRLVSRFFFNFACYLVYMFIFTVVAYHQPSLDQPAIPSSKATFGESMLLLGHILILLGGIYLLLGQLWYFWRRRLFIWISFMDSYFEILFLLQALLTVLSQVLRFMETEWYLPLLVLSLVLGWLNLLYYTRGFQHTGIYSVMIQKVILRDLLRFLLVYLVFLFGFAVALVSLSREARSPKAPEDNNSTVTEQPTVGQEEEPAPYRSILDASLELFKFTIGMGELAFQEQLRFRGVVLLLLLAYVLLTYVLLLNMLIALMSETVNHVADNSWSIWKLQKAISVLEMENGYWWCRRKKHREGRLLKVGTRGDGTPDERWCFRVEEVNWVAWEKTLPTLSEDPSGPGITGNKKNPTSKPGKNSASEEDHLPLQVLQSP
The assay is described as follows: Whole-cell voltage-clamp recording in TRPV2 transfected HEK293T cell line. The format is cell-based. The procedure:
HEK293T cell line (ATCC CRL-1 1268) was transiently transfected with plasmid DNA containing polynucleotide encoding […] (SEQ. ID. NO: 1), rTRPV2 (SEQ. ID. NO: 2), mTRPV3 (SEQ. ID. NO: 3), rTRPV4 (SEQ. ID. NO: 4), mTRPM8 (SEQ. ID. NO: 5) or mTRPA1 (SEQ. ID. NO: 6).
Particularly, the HEK293T cell line was transiently transfected with individual TRP channel plasmid (pcDNA3.1 containing polynucleotide encoding rTRPV1, rTRPV2, mTRPV3, rTRPV4, mTRPM8 or mTRPA1), and 600 ng/well of pCDNA3 (Invitrogen Corp., USA; containing green fluorescent protein (GFP) cDNA) using Fugene6 (Roche Diagnostics, USA) according to manufacturer's instruction. The transformed cells were cultured in DMEM/F12 containing 10% FBS and 1% penicillin/streptomycin in a CO2 incubator for 24 hours. The cells were replated onto poly-L-lysine-coated glass coverslips, followed by further culture for 10-24 hours.
The TRPV2 transfected cell line prepared in Example 1 was treated with 100 μM probenecid (Sigma-Aldrich, USA) and 300 μM 2-APB (2-aminoethoxydiphenyl borate; Cayman Chemical, USA), respectively. Stock solutions were made using water, DMSO or ethanol, and were diluted with test solutions before use.
Whole-cell voltage-clamp recording, one of the patch-clamp techniques, was performed with the transfected cell line of Example <1-1> according to the method of Bandel M, et al. (Neuron 41:849-857, 2004).
Particularly, the extracellular solution (140 mM NaCl, 5 mM KCl, 2 mM CaCl2, 1 mM MgCl2, 10 mM HEPES; titrated to pH 7.4 with NaOH) and the pipette solution (140 mM CsCl, 5 mM EGTA, 10 mM HEPES, 2.0 mM MgATP, 0.2 mM NaGTP; titrated to pH 7.2 with CsOH) were used. The potential was held at −60 mV for 250 ms, voltage-ramp pulsed from −80 mV to +80 mV for […] and returned to −60 mV for 250 ms, which was repeated without intersweep. This experiment was repeated 5 times.
The TRPV2 transfected cell line prepared by the method of Example 1 was treated with 100 μM probenecid, 100 μM probenecid+20 μM ruthenium red (Sigma-Aldrich, USA) and 300 μM 2-APB, respectively. […]

The subject of assay [1] is trigeminal neurons. The assay is described as follows: Calcium imaging of cultured trigeminal neurons. It is filed as cell-based, ICR mice. The procedure: Trigeminal ganglia were dissected out of decapitated adult ICR mice in cold PBS and treated with 1.5 mg/ml of collagenase/dispase (Roche Diagnostics, USA) at 37° for 45 min, and then treated with 0.25% trypsin (Invitrogen, USA) for 15 min. The trigeminal neurons prepared thereby were then plated onto poly-L-lysinecoated coverslips in DMEM/F12 containing 10% FBS, 1% penicillin/streptomycin and 5 ng/ml of 2.5S NGF (Invitrogen, USA), followed by culture in a CO2 incubator for 48-72 hours.
Calcium imaging was performed with a confocal microscope (LSM5 Pascal, Carl Zeiss, Germany), and time-lapse images (excitation 488 nm/emission 514 nm) were collected every 3 seconds using Carl Zeiss ratio tool software (Carl Zeiss, Germany).
The trigeminal neurons prepared by the same manner as described in Example 2 were delayed-treated with 100 μM probenecid or 4 kinds of TRP activators: TRPM8 activator menthol 400 μM, TRPA1 activator cinnamaldehyde (MP Biomedicals, USA) 300 μM, TRPV1 activator capsaicin (Sigma-Aldrich, USA) 2 μM and TRPV1-3 activator 2-APB 300 μM.
The trigeminal neurons prepared by the same manner as described in Example 2 were treated with 300 μM 2-APB+100 μM probenecid, 300 μM 2-APB+2 μM capsaicin, 300 μM 2-APB+300 μM cinnamaldehyde+2 μM capsaicin, 300 μM 2-APB +2 μM capsaicin +100 μM probenecid, 300 μM 2-APB +400 μM menthol and 300 μM 2-APB, respectively.

Assay [2] concerns trigeminal neurons. The assay is described as follows: Whole-cell voltage-clamp recording in trigeminal neurons. The note with it: 20 μM ruthenium red + 100 μM probenecid. It is filed as cell-based, ICR mice.

The structures appear in SMILES notation.

For the compound `NCCOB(c1ccccc1)c1ccccc1` [2-APB, 2-aminoethoxydiphenyl borate], the “whole cell current (TRPV2 activation)” value on rTRPV2 (300 μM 2-APB) is given as “equal response”. In the assay on trigeminal neurons [1] (300 μM 2-APB), the “neurons sensitive to 2-APB, share of the total neurons” value is 46.8%. The “neurons with probenecid-induced calcium influx that responded to 2-APB” value with trigeminal neurons [1] (300 μM 2-APB, 100 μM probenecid) is listed as 59 out of 60.

Consider `COc1cc(CNC(=O)CCCC/C=C/C(C)C)ccc1O` [capsaicin], for which the “share of probenecid-sensitive neurons that responded to capsaicin” value with trigeminal neurons [1] (2 μM capsaicin, 100 μM probenecid) was determined as 7.7%. Moreover, in the assay on trigeminal neurons [1] (2 μM capsaicin, 300 μM 2-APB), the “share of the 2-APB-sensitive group that responded to capsaicin” value was determined as 40.2%.

Take `N.N.N.N.N.N.N.N.N.N.N.N.N.N.[Cl-].[Cl-].[Cl-].[Cl-].[Cl-].[Cl-].[O-2].[O-2].[Ru+3].[Ru+3].[Ru+4]` [ruthenium red]: the “inhibition of probenecid induced current response” value at rTRPV2 (20 μM ruthenium red + 100 μM probenecid) is recorded as “inhibited”. The “inhibition of probenecid induced currents in trigeminal neurons” value with trigeminal neurons [2] is given as “inhibited”.
